Legend:
[1] = test system: healthy male adult volunteers; assay: Diuretic action (human); type: in vivo; settings: mean ± S.D.
Procedure: To healthy male adult volunteers, 300 mg (the capsule of Example 3 below ×1) (6 men) or 600 mg (the capsule of Example 3 below ×2) (6 men) of compound A was orally […] administered in fasting condition, or 600 mg (the capsule of Example 3 below×2) (6 men) of compound A was orally administered 30 minutes after breakfast. In each group, the 24-hr urine volume before administration and that on day 1 after administration were respectively determined.

DOCA hypertensive rats = assay: Antihypertension action (DOCA hypertensive rats); type: in vivo, rat (Wistar)
Procedure: Male Wistar rats, 10 weeks old, were subjected to left nephrectomy and 2 to 4 days after operation, deoxycorticosterone acetate was administered subcutaneously in a dose of 30 mg/ml/kg twice a week. The animals were given 1% saline for drinking water and the individuals showing a mean blood pressure of ≥150 mmHg at 15 weeks of age were submitted to the experiment. After catheterization, saline for drinking water was replaced with tap water. At the beginning of the experiment, the test rats had mean blood pressures from 152 to 204 mmHg, heart rates from 354 to 462 beats/min. and body weights from 232 to 318 g. 3~5 Animals per group were used.
3 Or 4 days before the beginning of the experiment, one end of a catheter for blood pressure measurement was passed from the femoral artery to the abdominal aorta of each rat and the other end was passed beneath the skin and fixed in exposed position in the dorsocervical region. The drug was orally administered once a day for 5 consecutive days. The rats had been deprived of food for about 3 hours before drug administration. The blood pressure was measured before administration and 5 hours after administration of days 1, 3 and 5. At each blood pressure measurement, the mean blood pressure was observed via a pressure transducer connected to the dorsocervical end of the catheter for blood pressure measurement and the stabilized mean blood pressure was recorded.
Drug was suspended and diluted using a 0.5% solution of methylcellulose and 5ml/kg of the suspension was orally administered.

[2] = test system: healthy male adult volunteers; assay: Antihypertensive action (human); type: in vivo; settings: mean ± S.D.
Procedure: To 6 healthy male adult volunteers, 150 mg of compound A (one capsule each of capsules shown in Examples 1 and 2 below) was orally administered twice a day at a 12-hour interval from 30 minutes after breakfast to 2 hours after supper for 8 consecutive days (except on day 8 when the administration was made only once in the morning) and the systolic blood pressure in standing position was measured.

[3] = 3.2 mg/kg p.o. once a day, Day 1 before administration (baseline)
[4] = 3.2 mg/kg p.o. once a day, Day 3 after 5 hr
[5] = 3.2 mg/kg p.o. once a day, Day 3 before administration
[6] = 3.2 mg/kg p.o. once a day, Day 5 after 5 hr
[7] = 3.2 mg/kg p.o. once a day, Day 5 before administration
[8] = 10 mg/kg p.o. once a day, Day 1 after 5 hr
[9] = 10 mg/kg p.o. once a day, Day 1 before administration (baseline)
[10] = 10 mg/kg p.o. once a day, Day 3 after 5 hr
[11] = 10 mg/kg p.o. once a day, Day 3 before administration
[12] = 10 mg/kg p.o. once a day, Day 5 after 5 hr
[13] = 10 mg/kg p.o. once a day, Day 5 before administration
[14] = 32 mg/kg p.o. once a day, Day 1 after 5 hr
[15] = 32 mg/kg p.o. once a day, Day 1 before administration (baseline)
[16] = 32 mg/kg p.o. once a day, Day 3 after 5 hr
[17] = 32 mg/kg p.o. once a day, Day 3 before administration
[18] = 32 mg/kg p.o. once a day, Day 5 after 5 hr
[19] = 32 mg/kg p.o. once a day, Day 5 before administration

`O=C(O)Cn1c(=O)n(Cc2ccc(Br)cc2F)c(=O)c2ccc(Cl)cc21` [Compound A, 2-[7-Chloro-3-(4-bromo-2-fluorobenzyl)-1,2,3,4-tetrahydro-2,4-dioxoquinazolin-1-yl]acetic acid] gave a Urine volume ([1]; 300 mg p.o., without breakfast, 0-2 hr) of 95 ± 57 mL, a Urine volume ([1]; 300 mg p.o., without breakfast, 2-4 hr) of 136 ± 60 mL and a Urine volume ([1]; 300 mg p.o., without breakfast, 4-8 hr) of 328 ± 55 mL. It also gave a Urine volume ([1]; 300 mg p.o., without breakfast, 8-12 hr) of 340 ± 79 mL, a Urine volume ([1]; 300 mg p.o., without breakfast, 12-24 hr) of 609 ± 147 mL and a Urine volume ([1]; 300 mg p.o., without breakfast, -24-0 hr (before administration, baseline)) of 902 ± 256 mL. For the same compound, the Urine volume ([1]; 300 mg p.o., without breakfast, total 0-24 hr) was 1508 ± 274 mL, the Urine volume ([1]; 600 mg p.o., 30 min after breakfast, 0-2 hr) was 130 ± 46 mL and the Urine volume ([1]; 600 mg p.o., 30 min after breakfast, 2-4 hr) was 151 ± 19 mL. For the same compound, the Urine volume ([1]; 600 mg p.o., 30 min after breakfast, 4-8 hr) was 414 ± 161 mL, the Urine volume ([1]; 600 mg p.o., 30 min after breakfast, 8-12 hr) was 507 ± 139 mL and the Urine volume ([1]; 600 mg p.o., 30 min after breakfast, 12-24 hr) was 829 ± 240 mL. It also gave a Urine volume ([1]; 600 mg p.o., 30 min after breakfast, -24-0 hr (before administration, baseline)) of 1234 ± 212 mL, a Urine volume ([1]; 600 mg p.o., 30 min after breakfast, total 0-24 hr) of 2031 ± 362 mL and a Urine volume ([1]; 600 mg p.o., without breakfast, 0-2 hr) of 64 ± 24 mL. For the same compound, the Urine volume ([1]; 600 mg p.o., without breakfast, 2-4 hr) was 82 ± 32 mL, the Urine volume ([1]; 600 mg p.o., without breakfast, 4-8 hr) was 292 ± 50 mL and the Urine volume ([1]; 600 mg p.o., without breakfast, 8-12 hr) was 393 ± 141 mL. It also gave a Urine volume ([1]; 600 mg p.o., without breakfast, 12-24 hr) of 863 ± 253 mL, a Urine volume ([1]; 600 mg p.o., without breakfast, -24-0 hr (before administration, baseline)) of 982 ± 293 mL and a Urine volume ([1]; 600 mg p.o., without breakfast, total 0-24 hr) of 1693 ± 368 mL. The Mean blood pressure (DOCA hypertensive rats; 3.2 mg/kg p.o. once a day, Day 1 after 5 hr) was 148 mm Hg, the Mean blood pressure (DOCA hypertensive rats; [3]) was 175 mm Hg and the “Percentage of change (mean blood pressure)” value (shortened to “Percentage of change”) (DOCA hypertensive rats; [3]) was 0.0%. For the same compound, the Mean blood pressure (DOCA hypertensive rats; [4]) was 142 mm Hg, the “Percentage of change” value (DOCA hypertensive rats; [4]) was -18.6% and the Mean blood pressure (DOCA hypertensive rats; [5]) was 153 mm Hg. For the same compound, the “Percentage of change” value (DOCA hypertensive rats; [5]) was -13.4%, the Mean blood pressure (DOCA hypertensive rats; [6]) was 131 mm Hg and the “Percentage of change” value (DOCA hypertensive rats; [6]) was -24.9%. The Mean blood pressure (DOCA hypertensive rats; [7]) was 139 mm Hg, the “Percentage of change” value (DOCA hypertensive rats; [7]) was -21.0% and the Mean blood pressure (DOCA hypertensive rats; [8]) was 145 mm Hg. The “Percentage of change” value (DOCA hypertensive rats; [8]) was -13.0%, the Mean blood pressure (DOCA hypertensive rats; [9]) was 166 mm Hg and the “Percentage of change” value (DOCA hypertensive rats; [9]) was 0.0%. For the same compound, the Mean blood pressure (DOCA hypertensive rats; [10]) was 127 mm Hg, the “Percentage of change” value (DOCA hypertensive rats; [10]) was -23.1% and the Mean blood pressure (DOCA hypertensive rats; [11]) was 137 mm Hg. For the same compound, the “Percentage of change” value (DOCA hypertensive rats; [11]) was -17.2%, the Mean blood pressure (DOCA hypertensive rats; [12]) was 118 mm Hg and the “Percentage of change” value (DOCA hypertensive rats; [12]) was -29.1%. The Mean blood pressure (DOCA hypertensive rats; [13]) was 127 mm Hg, the “Percentage of change” value (DOCA hypertensive rats; [13]) was -23.2% and the Mean blood pressure (DOCA hypertensive rats; [14]) was 133 mm Hg. The “Percentage of change” value (DOCA hypertensive rats; [14]) was -20.1%, the Mean blood pressure (DOCA hypertensive rats; [15]) was 168 mm Hg and the “Percentage of change” value (DOCA hypertensive rats; [15]) was 0.0%. The Mean blood pressure (DOCA hypertensive rats; [16]) was 132 mm Hg, the “Percentage of change” value (DOCA hypertensive rats; [16]) was -20.1% and the Mean blood pressure (DOCA hypertensive rats; [17]) was 133 mm Hg. For the same compound, the “Percentage of change” value (DOCA hypertensive rats; [17]) was -19.2%, the Mean blood pressure (DOCA hypertensive rats; [18]) was 116 mm Hg and the “Percentage of change” value (DOCA hypertensive rats; [18]) was -30.2%. The Mean blood pressure (DOCA hypertensive rats; [19]) was 117 mm Hg, the “Percentage of change” value (DOCA hypertensive rats; [19]) was -29.5% and the “Systolic blood pressure in standing position” value (“Systolic blood pressure” below) ([2]; 150 mg p.o. twice a day for 8 days, Day 9 immediately before breakfast) was 113 ± 3 mmHg. The “Systolic blood pressure” value ([2]; 150 mg p.o. twice a day for 8 days, Day 10 immediately before breakfast) was 117 ± 6 mmHg, the “Systolic blood pressure” value ([2]; 150 mg p.o. twice a day, Day 1 immediately before breakfast (before first dose, baseline)) was 121 ± 8 mmHg and the “Systolic blood pressure” value ([2]; 150 mg p.o. twice a day, Day 2 immediately before breakfast) was 113 ± 6 mmHg. The “Systolic blood pressure” value ([2]; 150 mg p.o. twice a day, Day 3 immediately before breakfast) was 114 ± 7 mmHg, the “Systolic blood pressure” value ([2]; 150 mg p.o. twice a day, Day 4 immediately before breakfast) was 114 ± 5 mmHg and the “Systolic blood pressure” value ([2]; 150 mg p.o. twice a day, Day 5 immediately before breakfast) was 110 ± 8 mmHg. For the same compound, the “Systolic blood pressure” value ([2]; 150 mg p.o. twice a day, Day 6 immediately before breakfast) was 114 ± 6 mmHg, the “Systolic blood pressure” value ([2]; 150 mg p.o. twice a day, Day 7 immediately before breakfast) was 116 ± 8 mmHg and the “Systolic blood pressure” value ([2]; 150 mg p.o. twice a day, Day 8 immediately before breakfast) was 117 ± 5 mmHg.
